For series [1] the following is noted: ref Ferreiro et al. 2002; cited from earlier work.
Series [2] deals with Bloodstream trypomastigotes of T. cruzi (Y strain). The series is described as follows: In vitro trypanocidal assay. It counts as cell-based. To be noted: Trypanosoma cruzi, 24 h, read-out: IC50/24 h.
The subject of another series is Salmonella typhimurium. Conditions: ref Rosenkranz Jr et al. 1976; cited from earlier work.
In series [3] the test system is DNA damage in human whole blood cells. Kind of series: In vitro alkaline single cell gel electrophoresis. To be noted: positive control, 160 µM. It counts as cell-based.

These results are taken from paper PMC4501412 (Memórias do Instituto Oswaldo Cruz, 2015).

Take `Cc1ncc([N+](=O)[O-])n1CC(O)CCl` (centres unmarked) [Compound 4, ornidazole]: the “Mutagenicity (in words)” value in series [1] is listed as “known to be a mutagenic agent”.

For `O=C(Cn1ccnc1[N+](=O)[O-])NCc1ccccc1` [Compound 8, benznidazole], the IC50 in series [2] turned out to be 9.7 ± 2.4 µM. Further, the Ames test result with Salmonella typhimurium was “positive”.

Consider `COS(C)(=O)=O` [MMS, Methyl methane-sulfonate], for which the “TAU value (total DNA damage score)” value in series [3] is 454.3 ± 9.2 TAU; in series [3] (listed as methyl methane-sulfonate), “MI: mutagenicity inde; NA: not applicable; TAU: total arbitrary units for the positive control, methyl methane-sulfonate value was 454.3 ± 9.2”.
